# Reference: patent US20260272895A1, “METHODS AND KITS FOR DELIVERY OF COMPOUNDS INTO CELLS” (Yale University, priority 2023, published 2026)
# Columns and labels:
# [1] = test system: retinal endothelial cells; assay: Retinal endothelial labeling after intravitreal / intraocular injection; assay type: in vivo, mouse; conditions: intravitreal/intraocular injection (eEDiTS 50 μM in FIG. 14D)
# Slco1a4 [2] = target: T1, Slco1a4 (Mus musculus, UniProt Q9EP96); assay: In vivo two-photon imaging in Slco1a4 knockout mice (Oatp1a/1b cluster knockout); set-up: FLAG; expressed in transfected cells; host or cells: cortical neurons of live mice, in utero electroporation at E14/E15
# T1 sequence (Q9EP96 1-670): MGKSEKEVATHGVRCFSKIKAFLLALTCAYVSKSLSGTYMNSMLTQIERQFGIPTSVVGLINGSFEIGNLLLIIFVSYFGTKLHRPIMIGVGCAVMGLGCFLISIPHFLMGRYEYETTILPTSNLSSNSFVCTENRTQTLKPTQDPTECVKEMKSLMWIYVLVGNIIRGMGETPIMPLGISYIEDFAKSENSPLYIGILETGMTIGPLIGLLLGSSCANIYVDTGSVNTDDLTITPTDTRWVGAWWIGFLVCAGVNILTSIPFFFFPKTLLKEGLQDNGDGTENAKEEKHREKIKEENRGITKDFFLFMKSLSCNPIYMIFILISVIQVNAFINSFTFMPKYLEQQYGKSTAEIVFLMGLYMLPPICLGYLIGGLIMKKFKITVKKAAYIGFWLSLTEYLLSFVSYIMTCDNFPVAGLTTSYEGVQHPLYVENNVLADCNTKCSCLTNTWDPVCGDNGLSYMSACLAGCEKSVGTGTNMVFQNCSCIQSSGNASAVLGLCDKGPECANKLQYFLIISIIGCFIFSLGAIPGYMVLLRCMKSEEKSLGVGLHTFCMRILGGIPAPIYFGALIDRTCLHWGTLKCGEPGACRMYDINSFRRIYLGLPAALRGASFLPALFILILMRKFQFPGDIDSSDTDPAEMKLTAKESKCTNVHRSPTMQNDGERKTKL
# Method: Briefly, animals are anaesthetized via intraperitoneal injections of ketamine/xylazine or via inhaled isoflurane. A region of the skull (3×3 mm) is gently removed with a high-speed drill and the underlying dura is removed. A small glass coverslip is placed over the skull to allow long term optical access for in vivo imaging. Labeling with fluorescent dyes is performed either via intravenous injections or topically application to the cortical surface for 20 min prior to glass cover placement. After recovery, in vivo images are acquired using a two-photon microscope (Bruker Technologies) equipped with a multimodal (fixed wavelength 1040 nm and tunable wavelength) InSight X3 two-photon laser (Spectra Physics) and 20× water immersion objective (Zeiss 1.0N.A.). The two-photon laser is appropriately tuned to excite particular fluorescent dyes and proteins as needed. In selected cases, following in vivo imaging, mice will be sacrificed and perfused for follow up immunohistochemistry and high-resolution confocal imaging (Leica SP8) to further confirm colocalization of dyes and cells expressing particular transporters.
# One-month-old wild-type mice were anesthetized using a ketamine/xylazine solution at doses of 100 mg/kg and 10 mg/kg, respectively. The fur around the skull area was shaved, and buprenex (0.1 mg per kg) and carprofen (5 mg per kg) were administered subcutaneously. Mice were kept on a heating pad at 37° C., and anesthesia was periodically monitored. The skin was treated with povidone-iodine solution, followed by cleaning with ethanol, and eye ointment was applied. A small skin section was excised to expose the skull. Thinning of the skull was performed in a circular area, followed by delicately lifting of the remaining skull without harm to the underlying brain. Within the circular region, the dura was gently removed using fine forceps, and a 4 mm cover glass was softly pressed onto the brain surface and affixed to the skull. […]
# Slco1a4 [3] = target: T1, Slco1a4; assay: Uptake by cells ectopically expressing Slco1a4 (in utero electroporation) in live mice; assay type: in vivo; set-up: FLAG; expressed in transfected cells; host or cells: cortical neurons of live mice, in utero electroporation at E14/E15; conditions: topical cortical administration (50 μM where stated)
# Method: IUE is performed at E14 or E15 as previously done. Briefly, timed pregnant mice are anaesthetized with ketamine/xylazine. The abdominal region is shaved, sterilized and a 3 cm midline incision is made in the skin and abdominal muscle. The uterine horns are exposed, and the lateral ventricle of each embryo is pressure injected (Picospritzer II, General Valve) with plasmid DNA (~[…] volume per embryo) at a concentration of […] followed by electroporation with tweezertrodes (50 V, 4-50 ms pulses with I s pulse interval. BTX Harvard Apparatus). The embryos are placed back in the mother womb, and the muscle and skin are sutured. Electroporated pups are aged to postnatal day 30. Imaging is performed through a craniotomy over the transfected hemisphere following dye labeling.
# Briefly, animals are anaesthetized via intraperitoneal injections of ketamine/xylazine or via inhaled isoflurane. A region of the skull (3×3 mm) is gently removed with a high-speed drill and the underlying dura is removed. A small glass coverslip is placed over the skull to allow long term optical access for in vivo imaging. […]
# One-month-old wild-type mice were anesthetized using a ketamine/xylazine solution at doses of 100 mg/kg and 10 mg/kg, respectively. […] Mice were kept on a heating pad at 37° C., and anesthesia was periodically monitored. […]
# [4] = Assessment of in vivo compound toxicity (fur regrowth, body weight); set-up: species or system mouse; conditions: intradermal injection (fur regrowth) and daily intraperitoneal injection for 5 days (body weight)
# Method: To evaluate systemic toxicity, mouse weight was monitored daily, focusing on P20 mice in their active growth stage. For local toxicity assessment, the mouse fur was shaved to stimulate follicular stem cell division and subsequent hair regrowth. Compounds were injected intradermally on the right lower back quadrant and the left quadrant was used as a control. Hair regrowth was monitored for 12 days with serial photography followed by quantification using NIH Image J Plot Profile Plug-In, yielding pixel intensity profiles. Changes in pixel intensity where compared between injected (right quadrant) versus noninjected (left quadrant) by using the following formula:
# (Noninjected intensity−Injected intensity)/Noninjected intensity×100%. (Eq. 1)
smiles,measurement,setting,value
"O=S(=O)([O-])c1cc(S(=O)(=O)O)ccc1C1=c2cc3c4c(c2Oc2cc(Br)ccc21)CCC[N+]=4CCC3 [Compound 1, 2-(12-bromo-1,2,3,5,6,7-hexahydrochromeno[2,3-f]pyrido[3,2,1-ij]quinolin-4-ium-9-yl)-5-sulfobenzenesulfonate]",retinal endothelial labeling,[1],rapid and highly specific labeling of retinal vasculature
same,astrocyte uptake in knockout mice,Slco1a4 [2]; Oatp1a/1b cluster knockout,Astrocyte uptake is seen in the knockout mice
same,endothelial uptake in Slco1a4 knockout mice,"Slco1a4 [2]; application to cortical surface, concentration not given",complete disappearance of endothelial uptake
same,uptake by neurons ectopically expressing Slco1a4,Slco1a4 [3],only those cells that express SLCO1A2 or SLCO1A4 (as evidenced by the GFP fluorescence (green)) take up compound 1
"COc1cc2c(c(OC)c1OC)-c1ccc(OC)c(=O)cc1C(NS(=O)(=O)c1ccc(-c3c4ccc(N(C)C)cc4[o+]c4cc(N(C)C)ccc34)c(S(=O)(=O)[O-])c1)CC2 (stereo not shown) [Compound 47, 2-(3,6-bis(dimethylamino)xanthylium-9-yl)-5-(N-(1,2,3,10-tetramethoxy-9-oxo-5,6,7,9-tetrahydrobenzo[a]heptalen-7-yl)sulfamoyl)benzenesulfonate]",endothelial uptake in Slco1a4 knockout mice,"Slco1a4 [2]; topical cortical administration 50 μM, compared to wildtype",complete elimination of Colchicine-eEDiTS uptake
same,local and systemic toxicity,[4],markedly reduced local and systemic toxicity
same,uptake by neurons ectopically expressing Slco1a4,Slco1a4 [3],marked uptake
